Active and inactive are the calls of the source. The rule behind the calls is not given here.
How the values were obtained:
PANC-1 = test: Antiproliferative activity against human PANC-1 cells assessed as cell growth inhibition measured for 72 hrs by MTT assay; format: functional, cell-based; conditions: PANC-1, 72 h
HGC-27 = test: Antiproliferative activity against human HGC-27 cells assessed as cell growth inhibition measured for 72 hrs by MTT assay; format: functional, cell-based; conditions: HGC-27, 72 h
[1] = target: Protein cereblon/Hexokinase-2 (Mus musculus) (UniProt O08528+Q8C7D2); test: PROTAC activity at CRBN/HK2 in mouse 4T1 cells assessed as […] ternary complex formation at 10 uM incubated for 24 hrs in presence of MG132; format: cell-based
Chain of Protein cereblon/Hexokinase-2 (Mus musculus) (O08528 whole entry, looked up): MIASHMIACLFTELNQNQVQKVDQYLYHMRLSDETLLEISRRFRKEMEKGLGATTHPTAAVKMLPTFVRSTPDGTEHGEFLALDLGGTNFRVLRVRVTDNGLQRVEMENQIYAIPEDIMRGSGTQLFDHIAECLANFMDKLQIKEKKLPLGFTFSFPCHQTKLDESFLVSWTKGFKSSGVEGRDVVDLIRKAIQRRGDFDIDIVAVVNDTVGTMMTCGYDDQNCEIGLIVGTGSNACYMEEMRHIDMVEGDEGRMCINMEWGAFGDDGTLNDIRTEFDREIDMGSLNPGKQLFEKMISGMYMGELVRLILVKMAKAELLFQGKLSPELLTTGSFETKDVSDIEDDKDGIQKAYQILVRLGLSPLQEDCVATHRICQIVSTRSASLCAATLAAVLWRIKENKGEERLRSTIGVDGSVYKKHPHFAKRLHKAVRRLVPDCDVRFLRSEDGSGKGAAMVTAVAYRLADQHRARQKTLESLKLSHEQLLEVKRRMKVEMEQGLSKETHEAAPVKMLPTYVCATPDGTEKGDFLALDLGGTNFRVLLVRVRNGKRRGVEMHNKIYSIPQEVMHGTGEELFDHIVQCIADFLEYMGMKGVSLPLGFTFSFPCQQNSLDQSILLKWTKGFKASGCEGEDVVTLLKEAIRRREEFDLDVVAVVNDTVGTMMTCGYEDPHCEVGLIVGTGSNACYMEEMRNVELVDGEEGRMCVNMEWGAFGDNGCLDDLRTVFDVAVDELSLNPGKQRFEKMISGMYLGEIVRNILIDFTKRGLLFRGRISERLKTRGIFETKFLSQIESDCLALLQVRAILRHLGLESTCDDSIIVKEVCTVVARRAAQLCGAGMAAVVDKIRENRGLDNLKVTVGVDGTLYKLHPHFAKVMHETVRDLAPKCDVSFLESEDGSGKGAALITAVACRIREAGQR
Chain of Protein cereblon/Hexokinase-2 (Mus musculus) (Q8C7D2 whole entry, looked up): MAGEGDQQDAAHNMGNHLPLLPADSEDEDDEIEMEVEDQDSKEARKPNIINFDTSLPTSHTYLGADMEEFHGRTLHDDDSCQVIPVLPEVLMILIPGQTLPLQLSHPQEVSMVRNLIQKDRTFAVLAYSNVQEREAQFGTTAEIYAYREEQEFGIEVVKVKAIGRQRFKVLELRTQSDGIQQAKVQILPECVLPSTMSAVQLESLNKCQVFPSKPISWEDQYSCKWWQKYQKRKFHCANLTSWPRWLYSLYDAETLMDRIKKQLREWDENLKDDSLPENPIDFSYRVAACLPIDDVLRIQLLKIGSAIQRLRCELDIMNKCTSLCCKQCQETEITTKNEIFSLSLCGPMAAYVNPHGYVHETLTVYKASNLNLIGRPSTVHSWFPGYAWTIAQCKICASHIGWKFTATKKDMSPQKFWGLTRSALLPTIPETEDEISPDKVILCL

4T1 [2] = test: Inhibition of glycolysis in mouse 4T1 cells assessed as reduction in oxygen consumption rate at 20 uM incubated for 1 to 4 hrs by seahorse analyzer method; format: functional, cell-based; conditions: time 1-4 hrs
4T1 [3] = test: Induction of mitochondrial damage in mouse 4T1 cells at 20 uM measured for 36 hrs by Hoechst 33342 staining based confocal fluorescence microscopic analysis; format: functional, cell-based
4T1 [4] = test: Induction of mitochondrial damage in mouse 4T1 cells assessed as reduction in ATP level at 20 uM measured for 36 hrs; format: functional, cell-based
[5] = target: T1, Hexokinase-1 (Homo sapiens) (UniProt P19367); test: Induction of HK1 degradation in human MDA-MB-231 cells at 20 uM measured for 36 hrs by Western blot analysis; format: cell-based
T1 sequence (whole entry): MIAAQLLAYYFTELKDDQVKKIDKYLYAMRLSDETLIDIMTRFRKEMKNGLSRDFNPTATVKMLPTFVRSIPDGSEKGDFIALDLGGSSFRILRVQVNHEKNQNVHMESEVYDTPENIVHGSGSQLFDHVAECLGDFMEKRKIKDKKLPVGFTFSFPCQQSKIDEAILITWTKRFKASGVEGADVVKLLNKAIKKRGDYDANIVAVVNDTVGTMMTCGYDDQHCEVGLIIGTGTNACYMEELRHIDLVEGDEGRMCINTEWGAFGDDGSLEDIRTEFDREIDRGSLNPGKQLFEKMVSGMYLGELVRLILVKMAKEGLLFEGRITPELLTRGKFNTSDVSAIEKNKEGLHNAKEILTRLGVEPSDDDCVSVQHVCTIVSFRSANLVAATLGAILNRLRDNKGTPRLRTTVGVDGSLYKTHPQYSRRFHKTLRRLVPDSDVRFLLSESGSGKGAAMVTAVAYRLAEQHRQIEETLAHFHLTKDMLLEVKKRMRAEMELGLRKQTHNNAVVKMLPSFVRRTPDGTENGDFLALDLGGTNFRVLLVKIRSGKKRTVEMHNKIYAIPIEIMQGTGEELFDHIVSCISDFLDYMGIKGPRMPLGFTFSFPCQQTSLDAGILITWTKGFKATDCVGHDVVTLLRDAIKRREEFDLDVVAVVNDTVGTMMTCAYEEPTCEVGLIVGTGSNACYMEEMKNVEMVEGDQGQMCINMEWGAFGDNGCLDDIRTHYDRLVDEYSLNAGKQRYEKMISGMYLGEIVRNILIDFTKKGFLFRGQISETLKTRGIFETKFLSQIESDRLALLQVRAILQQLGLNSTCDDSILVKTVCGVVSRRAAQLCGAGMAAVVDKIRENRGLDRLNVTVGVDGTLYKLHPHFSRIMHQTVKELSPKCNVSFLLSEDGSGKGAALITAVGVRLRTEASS

MDA-MB-231 [6] = test: Induction of pyroptosis in human MDA-MB-231 cells assessed as decrease in full length caspase-3 level at 20 uM incubated for 36 hrs by Western blot analysis; format: functional, cell-based
MDA-MB-231 [7] = test: Induction of pyroptosis in human MDA-MB-231 cells assessed as increase in cleaved caspase-3 level level at 20 uM incubated for 36 hrs by Western blot analysis; format: functional, cell-based
MDA-MB-231 [8] = test: Induction of pyroptosis in human MDA-MB-231 cells assessed as increase in N-terminal GSDME level at 20 uM incubated for 36 hrs by Western blot analysis; format: functional, cell-based
[9] = Toxicity in BALB/c mouse implanted with mouse 4T1 cells assessed as effect on corpuscular volume at 50 mg/kg, ip measured after 25 days by routine blood test; format: organism-based; conditions: in vivo, 600 h, time 25 day
4T1 [10] = test: Antitumor immunity against mouse 4T1 cells implanted in BALB/c mouse model assessed as downregulation of IL-10 expression in mouse tumor by ELISA analysis; format: functional, cell-based
[11] = Toxicity in BALB/c nude mouse xenografted with human MDA-MB-231 cells assessed as effect on mean corpuscular hemoglobin concentration at 50 mg/kg, ip measured after 30 days by routine blood test; format: organism-based; conditions: in vivo, 720 h, time 30 day
MDA-MB-231 [12] = test: Antitumor activity against human MDA-MB-231 cells xenografted in BALB/c nude mouse assessed as increase in N-terminal GSDME level at 50 mg/kg, ip measured after 28 days; format: functional, organism-based; conditions: time 28.0 day
4T1 [13] = test: Antitumor activity against mouse 4T1 cells implanted in BALB/c mouse assessed as reduction in tumor growth at 50 mg/kg, ip measured after 23 days in presence of cisplatin; format: functional, organism-based; conditions: time 23.0 day
[14] = Toxicity in BALB/c mouse implanted with mouse 4T1 cells assessed as change in body weight at 50 mg/kg, ip measured after 23 days in presence of cisplatin; format: organism-based; conditions: in vivo, 552 h, time 23 day
[15] = Toxicity in BALB/c mouse implanted with mouse 4T1 cells assessed as effect on hematocrit level at 50 mg/kg, ip measured after 25 days in presence of cisplatin by routine blood test; format: organism-based; conditions: in vivo, 600 h, time 25 day
[16] = Toxicity in BALB/c mouse implanted with mouse 4T1 cells assessed as pathological changes in liver at 50 mg/kg, ip measured after 25 days in presence of cisplatin by Hematoxylin -eosin staining based analysis; format: organism-based; conditions: in vivo, 600 h, time 25 day
[17] = Toxicity in BALB/c mouse implanted with mouse 4T1 cells assessed as pathological changes in lung at 50 mg/kg, ip measured after 25 days in presence of cisplatin by Hematoxylin -eosin staining based analysis; format: organism-based; conditions: in vivo, 600 h, time 25 day

**Q.** For `O=C1CCC(N2C(=O)c3cccc(NCCCCNC(=O)c4nn(Cc5ccc(Cl)cc5Cl)c5ccccc45)c3C2=O)C(=O)N1` (centres undefined), which IC50 (PANC-1) is on record?
**A.** 31.5 µM

**Q.** What about the IC50 (HGC-27) of the same compound?
**A.** 6.11 µM

**Q.** And the Activity [1]?
**A.** inactive

**Q.** And the inhibition (4T1 [2])?
**A.** Active

**Q.** What about the Activity (4T1 [3]) of the same compound?
**A.** Active

**Q.** And the Activity (4T1 [4])?
**A.** Active

**Q.** What about the Activity [5] of the same compound?
**A.** inactive

**Q.** And the Activity (MDA-MB-231 [6])?
**A.** Active

**Q.** What about the Activity (MDA-MB-231 [7]) of the same compound?
**A.** Active

**Q.** And the Activity (MDA-MB-231 [8])?
**A.** Active

**Q.** And the Activity [9]?
**A.** Non-Toxic

**Q.** And the Activity (4T1 [10])?
**A.** Active

**Q.** What about the Activity [11] of the same compound?
**A.** Non-Toxic

**Q.** What about the Activity (MDA-MB-231 [12]) of the same compound?
**A.** Active

**Q.** And the Activity (4T1 [13])?
**A.** Active

**Q.** What about the Activity [14] of the same compound?
**A.** Non-Toxic

**Q.** And the Activity [15]?
**A.** Non-Toxic

**Q.** And the Activity [16]?
**A.** Non-Toxic

**Q.** What about the Activity [17] of the same compound?
**A.** Non-Toxic

From ChEMBL document CHEMBL5331124, “Degradation of Hexokinase 2 Blocks Glycolysis and Induces GSDME-Dependent Pyroptosis to Amplify Immunogenic Cell Death for Breast Cancer Therapy” (J Med Chem, 2023)
